Source: paper PMC12799524, “Putative new biomarkers for renal transporter-mediated drug-drug interactions: Characterization as substrates of organic cation transporter 2, multidrug and toxin extrusion protein 1, and other important drug transporters” (Drug Metabolism and Disposition, 2025)

Experiments:
MATE1 = biological target: T1, MATE1 (Homo sapiens, UniProt Q96FL8); experiment: Uptake assay in HEK-MATE1 vs HEK-VC cells (pH 8.0); conditions: 0 minutes and 5 minutes without added substance
T1 sequence (Q96FL8 1-570): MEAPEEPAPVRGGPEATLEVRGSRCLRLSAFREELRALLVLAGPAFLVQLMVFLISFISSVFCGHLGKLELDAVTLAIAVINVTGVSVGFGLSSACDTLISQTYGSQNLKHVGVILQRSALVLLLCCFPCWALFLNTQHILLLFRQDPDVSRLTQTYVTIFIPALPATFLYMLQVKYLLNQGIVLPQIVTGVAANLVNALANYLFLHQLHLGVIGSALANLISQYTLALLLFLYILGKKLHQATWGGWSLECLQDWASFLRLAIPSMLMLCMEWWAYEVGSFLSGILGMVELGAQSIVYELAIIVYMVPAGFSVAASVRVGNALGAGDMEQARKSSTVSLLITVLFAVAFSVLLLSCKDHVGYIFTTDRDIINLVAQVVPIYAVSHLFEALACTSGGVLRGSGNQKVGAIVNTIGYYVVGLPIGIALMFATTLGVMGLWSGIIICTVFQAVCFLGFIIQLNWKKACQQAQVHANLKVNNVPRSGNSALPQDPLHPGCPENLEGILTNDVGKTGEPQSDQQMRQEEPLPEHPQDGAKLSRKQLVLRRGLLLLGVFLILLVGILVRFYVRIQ
Protocol: (§1) Transport experiments were performed 48 hours after seeding.
(§2) The intracellular background of all 5 compounds in HEK cells at the beginning of the uptake experiments was investigated 48 hours after seeding without incubation with transport buffer (ie, 0 minutes). […] Then, cells were lysed with ice-cold 80% MeOH containing the aforementioned recovery standards. In addition, the impact of a 5-minute incubation period with transport buffer without added substance was investigated.

human OCT2 = biological target: T2, human OCT2 (Homo sapiens, UniProt O15244); experiment: Uptake assay in HEK-OCT2 vs HEK-VC cells; assay type: in vitro ADME; parameters: expressed in transfected cells; host or cells: HEK293 (HEK-OCT2)
T2 sequence (O15244 1-555): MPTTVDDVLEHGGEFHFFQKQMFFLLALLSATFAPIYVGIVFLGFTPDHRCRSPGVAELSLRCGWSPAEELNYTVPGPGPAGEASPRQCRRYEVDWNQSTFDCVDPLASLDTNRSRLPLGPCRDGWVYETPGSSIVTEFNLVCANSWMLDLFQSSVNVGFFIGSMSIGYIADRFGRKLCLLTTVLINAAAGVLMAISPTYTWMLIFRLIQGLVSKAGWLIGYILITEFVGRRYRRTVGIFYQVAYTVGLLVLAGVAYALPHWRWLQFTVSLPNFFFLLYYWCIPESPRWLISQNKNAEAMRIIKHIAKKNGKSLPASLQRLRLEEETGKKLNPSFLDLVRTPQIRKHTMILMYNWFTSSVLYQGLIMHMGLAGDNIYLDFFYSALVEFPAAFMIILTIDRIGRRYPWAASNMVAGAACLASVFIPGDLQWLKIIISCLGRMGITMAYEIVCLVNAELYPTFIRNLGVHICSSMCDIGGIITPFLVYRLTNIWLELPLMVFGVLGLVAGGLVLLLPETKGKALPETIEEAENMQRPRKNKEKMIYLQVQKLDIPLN
Protocol: as §1, §2

[1] = substrate: NCCc1c[nH]c2ccc(O)cc12

## N=C(N)NCCCC(=O)O [4-Guanidinobutanoic acid, 4-guanidinobutanoic acid]
MATE1
  Intracellular background in HEK-MATE1 cells compared to HEK-VC cells: significantly lower
Human OCT2; 0 minutes, without added substance
  Intracellular background in HEK-OCT2 cells compared to HEK-VC cells: significantly higher
Human OCT2; 5 minutes in transport buffer without added substance
  Intracellular background in HEK-OCT2 cells compared to HEK-VC cells: reduced to the amount in HEK-VC cells

B1: human OCT2 (Homo sapiens) (protein)
chain: MPTTVDDVLEHGGEFHFFQKQMFFLLALLSATFAPIYVGIVFLGFTPDHRCRSPGVAELSLRCGWSPAEELNYTVPGPGPAGEASPRQCRRYEVDWNQSTFDCVDPLASLDTNRSRLPLGPCRDGWVYETPGSSIVTEFNLVCANSWMLDLFQSSVNVGFFIGSMSIGYIADRFGRKLCLLTTVLINAAAGVLMAISPTYTWMLIFRLIQGLVSKAGWLIGYILITEFVGRRYRRTVGIFYQVAYTVGLLVLAGVAYALPHWRWLQFTVSLPNFFFLLYYWCIPESPRWLISQNKNAEAMRIIKHIAKKNGKSLPASLQRLRLEEETGKKLNPSFLDLVRTPQIRKHTMILMYNWFTSSVLYQGLIMHMGLAGDNIYLDFFYSALVEFPAAFMIILTIDRIGRRYPWAASNMVAGAACLASVFIPGDLQWLKIIISCLGRMGITMAYEIVCLVNAELYPTFIRNLGVHICSSMCDIGGIITPFLVYRLTNIWLELPLMVFGVLGLVAGGLVLLLPETKGKALPETIEEAENMQRPRKNKEKMIYLQVQKLDIPLN
[1]
  Km: 412.0 ± 143.6 µM
